# Laboratory results as given in patent US9815833B2, “Pyridine derivative and medical use thereof” (Chengdu Easton Biopharmaceuticals Co., Ltd., priority 2013, dated 2017).
# Assays:
# APTT of healthy mice = assay: Effects on APTT of healthy mice; type: in vivo, KM mice; conditions: 5 mg/kg i.g.; for APTT (sec): KM mice, blood collected 1 hour after administration, x ± SD, 10 mice per group; for anticoagulant effect (APTT) compared with positive drug Apixaban: same dose
# From the text: Test for four coagulation parameters (including prothrombin time (PT), activated partial thromboplastin time (APTT), thrombin time (TT) and fibrinogen (FIB)) belongs to one of clinical inspection items, and is necessary to thrombotic disease inspections or before the surgery. APTT mainly reflects whether the intrinsic coagulation system status is normal or not. Accordingly, the APTT value is used as a detection indicator in this test of the present invention. The anticoagulant effects of the compounds prepared in the Examples of the present invention were evaluated through the effects thereof on APTT of mice.
# KM mice, weighing 28-30 g, male, 170 mice, provided by Chengdu Dashuo Biological Technology Co., Ltd.; Production facility license: SCXK (Chuan) 2008-24. Animals were housed in the animal room after purchased, adaptively observed for at least three days, and used for assays unless they were qualified for the quarantine standard.
# (1) Grouping: mice were grouped and tested according to Table 1, wherein there were 10 mice in each group.
# Mice in each group were administrated with the corresponding investigational drugs (mice in control group were administrated with the normal saline). At 1 hour after administration, blood was collected into 0.5 ml vacuum blood-collection tube containing sodium citrate from mice orbit. APTT values of animals were measured after collecting the blood samples.
# Excel was used for statistics, experimental data were expressed as (x±SD), and two-sided T-test method was used to statistically compare the experimental data among multiple groups.
# [1] = Pharmacokinetic studies on healthy rats; type: in vivo; conditions: male, rat, po, SD rats, 10 mg/kg i.g., plasma; for AUC(0-t): read-out: AUC0-24
# From the text: SD rats were used as test animals, and LC/MS/MS method was applied for measuring the drug concentrations of rats at different time after administrating the compounds of the present invention by gavage, respectively. Pharmacokinetic behaviors of the compounds of the present invention on rats were studied, so as to evaluate the pharmacokinetic characteristics thereof.
# SD rats, weighing 180-220 g, male, 40 rats, 5 rats in each group, provided by Chengdu Dashuo Biological Technology Co., Ltd.; Production facility license: SCXK (Chuan) 2008-24. Animals were housed in the animal room after purchased, adaptively observed for at least three days, and used for assays unless they were qualified for the quarantine standard.
# 3.1 Grouping: the rats were randomly grouped according to Table 3, with no significant difference among the groups;
# Rats in each group was administrated by gavage with the corresponding investigational drugs according to Table 3, at 5 min, 10 min, 20 min, 30 min, 1 h, 2 h, 4 h, 6 h, 8 h, 10 h, 12 h, 24 h after administration, 0.5 ml of blood was taken into the vacuum blood-collection tubes containing heparin sodium, and centrifuged at 5,000 rpm to obtain plasma which was stored at −20° C.
# 50 μL plasma at each time after administration was taken, then 150 μL of acetonitrile was added, which was subjected to vortex at 1500 rpm for 2 minutes. Solution was centrifuged for 15 minutes (3500 r/min), after that 10 μL supernatant was analyzed by HPLC/MS/MS.
# The pharmacokinetic behaviors of the investigational compounds were subjected to compartmental model fitting, and DAS 2.0 software was used to calculate the main pharmacokinetic parameters.
# human FXa = human FXa (Homo sapiens, UniProt P00742); assay: Human FXa inhibition assay (fluorogenic substrate); type: biochemical; conditions: human FXa 1 nM, substrate 106.7 μM, 30 minutes at room temperature, pH 8.0
# Procedure: Inhibitory effects of the compounds of the present invention on human FXa were studied, to measure IC50 values thereof on human FXa.
# human FXa enzyme (Sekisui Diagnostics, REF 526);
# Fluorogenic substrate for the FXa assay (American diagnostic, Product No. 222F);
# Buffer: 20 mM Tris-HCl, 200 mM NaCl, 2.5 mM CaCl2, pH 8.0.
# (2) 10 mM of each compound was 5-fold diluted serially with buffer to different concentrations (from 40 μM to 0.00002048 μM);
# (3) 6 μL of the above diluted solutions of Step (2) were added into each well of 384-well plate to make a final volume of 60 μL, and the final concentration of the compound ranged from 4 μM to […];
# (4) 30 μL of human FXa enzyme (2 nM) was added into each well, with a final concentration of 1 nM;
# (5) 24 μL human FXa fluorescent enzyme substrate (266.7 μM) was added into each well, with a final concentration of 106.7 μM;
# (6) the plate was gently shaked for 5 minutes and then incubated for 30 minutes at room temperature, with avoidance from light;
# (7) fluorescence signal was read at 360/440 nm, the inhibition percentage was measured, and 4 Parameter Logistic Model in Xlfit software was employed to calculate IC50.
# Chain of human FXa (P00742 235-488 limits assumed): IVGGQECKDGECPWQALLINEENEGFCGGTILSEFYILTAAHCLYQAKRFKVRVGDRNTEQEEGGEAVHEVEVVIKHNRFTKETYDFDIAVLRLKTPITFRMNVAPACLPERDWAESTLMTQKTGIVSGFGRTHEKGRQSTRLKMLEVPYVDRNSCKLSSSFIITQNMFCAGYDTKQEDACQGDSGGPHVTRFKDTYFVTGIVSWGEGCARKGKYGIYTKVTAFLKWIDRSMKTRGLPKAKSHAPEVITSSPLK
# Chain of human FXa (P00742 41-179 partner limits assumed): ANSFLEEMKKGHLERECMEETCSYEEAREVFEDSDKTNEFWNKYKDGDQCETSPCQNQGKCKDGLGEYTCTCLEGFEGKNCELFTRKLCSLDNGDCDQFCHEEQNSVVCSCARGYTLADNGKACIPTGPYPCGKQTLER
Compound,APTT (sec) (APTT of healthy mice),"anticoagulant effect (APTT) compared with positive drug Apixaban (APTT of healthy mice; mice, 1 h after administration)",Cmax [1] [ng/mL],Tmax [1] [h],half-life [1] [h],AUC(0-t) [1] [ng·h/mL],IC50 (human FXa) [nM],"APTT value compared with the control group (APTT of healthy mice; mice, 1 h after administration, P<0.01)"
"Cc1cc(N2CCc3c(C(N)=O)nn(-c4cc(F)cc(F)c4)c3C2=O)ccc1N1CCCC1=O [Example 17, 1-(3,5-difluoro-phenyl)-7-oxo-6-[3-methyl-4-(2-oxo-pyrrolidin-1-yl)phenyl]-4,5,6,7-tetrahydro-1H-pyrazolo[3,4-c]pyridine-3-carboxamide]",30.79 ± 2.91 * * ^ΔΔ sec,significantly better than positive drug Apixaban,9670,0.25,6.8,38600,0.015,–
"NC(=O)c1nn(-c2cc(F)cc(F)c2)c2c1CCN(c1ccc(N3CCCC3=O)cc1)C2=O [Example 8, 1-(3,5-difluoro-phenyl)-7-oxo-6-[4-(2-oxo-pyrrolidin-1-yl)phenyl]-4,5,6,7-tetrahydro-1H-pyrazolo[3,4-c]pyridine-3-carboxamide]",27.82 ± 2.71 * * ^ΔΔ sec,significantly better than positive drug Apixaban,7860,0.3,6.2,20100,–,–
"NC(=O)c1nn(-c2ccccc2F)c2c1CCN(c1ccc(N3CCCCC3=O)cc1)C2=O [Example 3, 1-(2-fluorophenyl)-7-oxo-6-[4-(2-oxo-piperidin-1-yl)phenyl]-4,5,6,7-tetrahydro-1H-pyrazolo[3,4-c]pyridine-3-carboxamide]",27.81 ± 3.42 * * ^ΔΔ sec,significantly better than positive drug Apixaban,–,–,–,–,–,–
"COc1ccc(-n2nc(C(N)=O)c3c2C(=O)N(c2ccc(N4CCCCC4=O)cc2C)CC3)cc1 [Example 19, 1-(4-methoxyphenyl)-7-oxo-6-[2-methyl-4-(2-oxo-piperidin-1-yl)phenyl]-4,5,6,7-tetrahydro-1H-pyrazolo[3,4-c]pyridine-3-carboxamide]",26.73 ± 3.12 * * ^ΔΔ sec,significantly better than positive drug Apixaban,–,–,–,–,–,–
"NC(=O)c1nn(-c2ccccc2F)c2c1CCN(c1ccc(N3CCCC3=O)cc1)C2=O [Example 6, 1-(2-fluorophenyl)-7-oxo-6-[4-(2-oxo-pyrrolidin-1-yl)phenyl]-4,5,6,7-tetrahydro-1H-pyrazolo[3,4-c]pyridine-3-carboxamide]",27.32 ± 3.12 * * ^ΔΔ sec,significantly better than positive drug Apixaban,7560,0.3,5.8,19800,–,–
"COc1ccccc1-n1nc(C(N)=O)c2c1C(=O)N(c1ccc(N3CCCC3=O)cc1C)CC2 [Example 10, 1-(2-methoxyphenyl)-7-oxo-6-[2-methyl-4-(2-oxo-pyrrolidin-1-yl)phenyl]-4,5,6,7-tetrahydro-1H-pyrazolo[3,4-c]pyridine-3-carboxamide]",24.67 ± 2.37 * * ^Δ sec,superior to positive drug Apixaban,–,–,–,–,–,–
"COc1ccc(-n2nc(C(N)=O)c3c2C(=O)N(c2ccc(N4CCCCC4=O)cc2OC)CC3)cc1 [Example 21, 1-(4-methoxyphenyl)-7-oxo-6-[2-methoxy-4-(2-oxo-piperidin-1-yl)phenyl]-4,5,6,7-tetrahydro-1H-pyrazolo[3,4-c]pyridine-3-carboxamide]",24.65 ± 2.18 * * ^Δ sec,superior to positive drug Apixaban,–,–,–,–,–,–
"COc1ccc(-n2nc(C(N)=O)c3c2C(=O)N(c2ccc(N4CCCCC4=O)cc2)CC3)cc1F [Example 4, 1-(3-fluoro-4-methoxyphenyl)-7-oxo-6-[4-(2-oxo-piperidin-1-yl)phenyl]-4,5,6,7-tetrahydro-1H-pyrazolo[3,4-c]pyridine-3-carboxamide]",24.78 ± 2.64 * * ^Δ sec,superior to positive drug Apixaban,–,–,–,–,–,–
"CSc1ccc(-n2nc(C(N)=O)c3c2C(=O)N(c2ccc(N4CCCCC4=O)cc2)CC3)cc1 [Example 2, 1-(4-methylthiophenyl)-7-oxo-6-[4-(2-oxo-piperidin-1-yl)phenyl]-4,5,6,7-tetrahydro-1H-pyrazolo[3,4-c]pyridine-3-carboxamide]",24.50 ± 2.50 * * ^Δ sec,superior to positive drug Apixaban,–,–,–,–,–,–
"Cc1cc(N2CCCCC2=O)ccc1N1CCc2c(C(N)=O)nn(-c3cccc(F)c3)c2C1=O [Example 20, 1-(3-fluorophenyl)-7-oxo-6-[2-methyl-4-(2-oxo-piperidin-1-yl)phenyl]-4,5,6,7-tetrahydro-1H-pyrazolo[3,4-c]pyridine-3-carboxamide]",24.71 ± 3.20 * * ^Δ sec,superior to positive drug Apixaban,–,–,–,–,–,–
"COc1ccc(-n2nc(C(N)=O)c3c2C(=O)N(c2ccc(N4CCCC4=O)c(C)c2)CC3)cc1 [Example 16, 1-(4-methoxyphenyl)-7-oxo-6-[3-methyl-4-(2-oxo-pyrrolidin-1-yl)phenyl]-4,5,6,7-tetrahydro-1H-pyrazolo[3,4-c]pyridine-3-carboxamide]",29.89 ± 2.72 * * ^ΔΔ sec,significantly better than positive drug Apixaban,9450,0.25,6.2,37700,0.023,–
"COc1ccc(-n2nc(C(N)=O)c3c2C(=O)N(c2ccc(N4CCCCC4=O)cc2)CC3)cc1 [Apixaban, reference compound]",21.46 ± 2.32 * * sec,–,6850,0.5,5.2,12900,–,significantly increase
"Cc1ccc(-n2nc(C(N)=O)c3c2C(=O)N(c2ccc(N4CCCC4=O)cc2C)CC3)c(C)c1 [Example 13, 1-(2,4-dimethyl-phenyl)-7-oxo-6-[2-methyl-4-(2-oxo-pyrrolidin-1-yl)phenyl]-4,5,6,7-tetrahydro-1H-pyrazolo[3,4-c]pyridine-3-carboxamide]",24.78 ± 2.67 * * ^Δ sec,superior to positive drug Apixaban,–,–,–,–,–,–
